Experiment [1] deals with mixed cortical cells from P1 rats. The experiment in a line: Aβ1-42 oligomer cytotoxicity assay, MTT readout. The format is cell-based, rat. The conditions noted are these: for reversal of Aβ1-42 oligomer-mediated toxicity: mixed primary cortical cultures, different IgG backbones. On the procedure:
FIG. 2 provides graphs and immunocytochemical images corresponding to the experiments described in Example 6.3. […] An MTT assay was used to determine cell viability as described in the Methods section. The means (±SEM) of five independent experiments are shown. *P<0.05, **P<0.01. […] Neurotoxicity following extended Aβ1-42 oligomer treatment was tested by morphological analyses (C).
A non-specific IgG monoclonal antibody was used as a control in all experiments.
Rat primary cortical cultures were prepared from Sprague-Dawley rats (Charles River Laboratories L'Arbresle, France) at post-natal day 1, as described by Meberg and Miller (Meberg and Miller, 2003). Cerebellum and meninges were removed, and cortices were cut into small pieces and dissociated with enzymatic disruption at 37° C. in dissociation buffer (papaine, CaCl2, EDTA, and HEPES; all from Invitrogen, Carlsbad, Calif.). DNase (Invitrogen) was added for 10 min. Following dissociation, dispersed cortical neurons were plated onto poly-L-lysine (0.01%; mol. wt 150,000-300,000; Sigma) coated 6-well, 24-well, or 96-well tissue culture plates. For immunocytochemistry, cells were grown on coated glass coverslips, into 24-well plates. Cells were maintained in Neurobasal media (Invitrogen) without phenol-red, with the addition of L-glutamine (2 mM; Sigma), B27 supplement (Invitrogen), and penicillin/streptomycin (Sigma) in a humidified incubator at 37° C. and 5% CO2. Following 1 h and 30 min in culture, the media was replaced with astrocyte-conditioned medium. After a further 4 days in culture, cell proliferation was blocked by treatment with cytosine arabinoside (Ara-C) at 2.5 μM (Invitrogen). Under these culture conditions, 20% of cells were identified as neurons by NeuN/DAPI staining (not shown). Experiments using mixed cortical cultures were generally performed at days-in-vitro (“DIV”) 6 unless stated otherwise. Enriched microglia prepared from cortex and hippocampus were harvested as described for cortical cultures above. Cortex and hippocampus were put in DMEM containing high glucose and homogenized by pipetting with a 10 mL pipette and then with a syringe. The homogenate was centrifuged for 3 min at 1,000×g, and then resuspended in pre-warmed DMEM containing high glucose containing 10% FCS and penicillin/streptomycin (microglia media). The cell suspension was next transferred to a T75 tissue-culture flask and kept in a humidified incubator at 37° C. and 5% CO2 for 1 week. The flask was shaken to separate microglia from adherent cells, and collected and washed in DMEM. The resulting cells were resuspended in 1 mL microglia media, counted, and plated at 5×10^4 cells/well. To verify microglial enrichment, cells were stained with the astroglial and microglial markers GFAP and Iba1, respectively. Greater than 60% of cells stained positive for Iba1, with no cells staining for both GFAP and Iba1. Pure microglia were prepared from post-natal day 3 CX3CR1-GFP mice (Jackson Laboratories). Cortex and hippocampus were dissected and triturated in DMEM containing high glucose using a 10 mL pipette, and then with an 18 gauge needle. The homogenate was centrifuged for 3 min at 1,000 g, and then resuspended in pre-warmed DMEM containing high glucose, 10% FBS and penicillin/streptomycin (microglia media). The cell suspension was next transferred to a T75 tissue-culture flask and kept in a humidified incubator at 37° C. and 5% CO2 for 7-10 d. Microglia were isolated by shaking, collected and washed in DMEM. The resulting cells were resuspended in 1 mL microglia media, counted, and plated on tissue culture treated glass chamber slides at 5×10^4 cells/well for use in experiments.
The cytotoxicity of Aβ1-42 oligomers was tested on mixed cortical cultures at DIV 5. All antibodies, at a final concentration of 100 μg/mL, were co-incubated with Aβ1-42 oligomers for 30 min in serum-free cell culture medium at 37° C. before treatment of cells. […]

The test system of experiment [2] is Aβ1-42. The experiment in a line: Aβ ELISA, binding to Aβ peptides and Aβ1-42 assembly states. On the set-up: species or system human. The following applies: Aβ ELISA; human and murine Aβ1-42 and human Aβ1-40. From the text: (§1) FIG. 1 provides graphs and immunohistochemical images corresponding to the experiments described in Example 6.1 and 6.2. […] As a control, an anti-Aβ IgG monoclonal antibody with a N-terminal epitope was used. […] The mean (±SEM) of two assays is shown.
Murine anti-Aβ monoclonal antibodies were generated by immunizing mice with an Aβ peptide antigen using a liposomal vaccine formulation as previously described (Muhs et al., 2007). Several criteria were used to select candidate antibodies, including the ability to bind multiple Aβ species and to inhibit Aβ1-42 assembly into small cytotoxic peptide aggregates. A monoclonal murine mAb with an IgG2b backbone (mMABT) was selected for in vivo functionality studies using both single-transgenic murine mutant human APP and double-transgenic murine mutant human APP/PS1 models of Alzheimer's Disease. […] These ranged from monomeric and oligomeric Aβ1-42 fractions isolated by size-exclusion chromatography (SEC), mature Aβ1-42 fibers, to a more complex mixture of highly neurotoxic Aβ1-42 oligomer assemblies, ranging in size from dimers and trimers to higher molecular-weight multimers (see FIG. 8).

Experiment [3] has as its system Aβ plaques in the brains of transgenic mice expressing hAPP. The experiment can be described thus: Immunostaining of Aβ plaques in brain sections of hAPP transgenic mice. It counts as binding. The conditions noted are these: hAPP transgenic mouse brain sections.
Text: as §1

In experiment [4] the target is Aβ1-42 (Homo sapiens, UniProt P05067). The experiment in a line: Aβ1-42 self-assembly assay not relying on ThT fluorescence. It counts as biochemical. The conditions noted are these: labeled Aβ1-42 onto immobilized un-labeled Aβ1-42.
Sequence of Aβ1-42 (Homo sapiens, UniProt P05067) (P05067 672-713 limits assumed): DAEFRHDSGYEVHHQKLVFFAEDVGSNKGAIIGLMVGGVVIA
A further experiment has as its system APP/PS1 mice. The experiment can be described thus: In vivo two-photon imaging of amyloid plaques. On the set-up: species or system mouse. The conditions noted are these: systemic dosing; tracked over multiple weeks. The protocol: FIG. 11 provides In vivo imaging of Aβ plaques in APP/PS1 mice treated with anti-beta amyloid antibody was performed. Systemic dosing of MABT modulates individual amyloid plaques in vivo. Amyloid plaques in APP/PS1 animals were labeled with Methoxy-X04 injected I.P., visualized by in vivo two-photon microscopy and tracked over multiple weeks (A). The relative change in plaque volume over time plotted as fold-increase from the initial imaging session (B).
Cranial windows were implanted above the somatosensory cortex of 10-month old APP hAPP(V717I)/PS1 mice, as previously described (Trachtenberg et al 2002, Holtmaat et al 2009), 2 weeks before the initial imaging session. Twenty-four hours prior to each imaging session animals were injected with 10 mg/kg Methoxy-X04 I.P. to visualize individual amyloid plaques (Klunk et al 2002) and immediately prior to imaging injected I.V. with AngioSense680 (VisEn Medical) to visualize blood vessels. For each imaging session animals were anesthetized with an isoflurane-oxygen mixture and mounted to the microscope using a head post. Images were collected via a two-photon laser scanning microscope (Ultima in vivo; Prairie Technologies) using a Ti:sapphire laser (MaiTai DeepSee; Spectra Physics) tuned to 820 nm delivering ˜30 mW to the back-focal plane of a 40× NA 0.8 objective lens (Olympus). […]

Entries after “also recorded” stand apart in the source; their conditions may differ.

Take “MABT-IgG1: same antigen binding sequences as MABT on human IgG1 wild-type backbone with full FcγR-binding capacity”: the “reversal of Aβ1-42 oligomer-mediated toxicity” value in experiment [1] is on record as “full reversal of Aβ1-42 oligomer-mediated toxicity; also recorded: trended towards a smaller protective effect when compared to MABT”.

With “MABT: humanized anti-Aβ monoclonal antibody of IgG4 isotype, affinity matured and humanized form of mouse mMABT”, the “binding to different Aβ peptides” value with Aβ1-42 [2] is “bound with high affinity”. Moreover, the “binding to Aβ plaques” value in experiment [3] is given as “immunodecorated”. Further, in the experiment with Aβ1-42 [4], the Aβ1-42 self-assembly entry is given as “prevented the self-assembly of Aβ1-42 in a dose-dependent manner”. In the experiment on APP/PS1 mice, the individual plaque volume entry is on record as “decreased in volume”. Further, the “antibody-mediated increase in MTT signal under p38MAPK inhibition” value in experiment [1] (10 μM Aβ1-42 oligomers, 100 μg/ml antibody, 1 μM SB239063, 24 h) was “reduced to that of MABT-IgG1-D265A”. In addition, the “rescue from Aβ1-42 oligomer toxicity (MTT)” value in experiment [1] (Aβ1-42 oligomer up to 5 μM, 24 h, MABT to oligomer molar ratio 1:7.5) is “complete rescue from toxicity”. Further, in experiment [1], the “reversal of Aβ1-42 oligomer-mediated toxicity” value was “full reversal of Aβ1-42 oligomer-mediated toxicity”.

(Values after patent US9221900B2, “Methods for identifying safe and functional humanized antibodies” (AC IMMUNE S.A., priority 2010, dated 2015).)
